Measurements taken from US6552014B2, “Methods of inhibiting platelet activation with selective serotonin reuptake inhibitors” (HeartDrug Research, L.L.C., priority 1999, dated 2003).

Columns and labels:
[1] = in vivo; cited from earlier work
platelets = experiment: Platelet aggregation in whole blood (ADP or collagen); type: cell-based, human
Method: (§1) Trisodium citrate (3.8%) and whole blood is immediately mixed in a 1:9 ratio, and then centrifuged at 1200 g for 2.5 minutes, to obtain platelet-rich plasma (PRP), which is kept at room temperature for use within 1 hour for platelet aggregation studies. Platelet count is determined in each PRP sample with a Coulter Counter ZM (Coulter Co., Hialeah, Fla.). Platelet numbers are adjusted to 3.50×10^8/ml for aggregation with homologous platelet-poor plasma. PRP and whole blood aggregation tests are performed simultaneously. Whole blood is diluted 1.1 with the 0.5 ml PBS, and then swirled gently to mix . The cuvette with the stirring bar is placed in the incubation well and allowed to warm to 37° C. for 5 minutes. Then the sample are transferred to the assay well. An electrode is placed in the sample cuvette. Platelet aggregation is stimulated with 5 μM ADP, 1 μg/ml collagen, and 0.75 mM arachidonic acid. All agonists are obtained from Chronolog Corporation (Hawertown, Pa.). […] Platelet aggregability are expressed as the percentage of light transmittance change from baseline using platelet-poor plasma as a reference at the end of recording time for plasma samples, or as a change in electrical impedance for whole blood samples. Aggregation curves are recorded for 4 minutes and analyzed according to internationally established standards using Aggrolinkg® software.

PECAM-1 [2] = experiment: Ex vivo soluble PECAM-1 plasma levels in patients; design: species or system human; details: patients with depression following myocardial infarction; after 16 weeks of the sertraline/placebo therapy
Method: Soluble P-selectin (Centocor, Inc., Malvern, Pa. USA); and PECAM-1 (Bender MedSystems, Vienna, Austria) are measured Plasma samples will be extracted with ethanol and then stored at −80° C. before final determination. Enzyme-linked immunosorbent assays will be used according standard techniques and as described herein.

PECAM-1 [3] = experiment: Flow cytometry of platelet antigen expression, platelet rich plasma; type: cell-based, human; details: PRP, desmethylsertraline 64.2 ng/ml
GP IIIa = experiment: as above; type: cell-based, human; details: PRP, desmethylsertraline 64.2 ng/ml
GP IIb = experiment: as above; type: cell-based, human; details: PRP, desmethylsertraline 64.2 ng/ml
CPIa-IIa = experiment: as above; type: cell-based, human; details: PRP; healthy volunteers; desmethylsertraline 64.2 ng/ml
CD9 = experiment: as above; type: cell-based, human; details: PRP; healthy volunteers; desmethylsertraline 64.2 ng/ml
human platelets = experiment: Platelet inhibition / platelet activation state, overall statement; type: cell-based; details: platelet rich plasma and whole blood
Method: as §1, with “.” for “. The cuvette with the stirring bar is placed in the incubation well and allowed to warm to 37° C. for 5 minutes. Then the sample are transferred to the assay well. An electrode is placed in the sample cuvette. Platelet aggregation is stimulated with 5 μM ADP, 1 μg/ml collagen, and 0.75 mM arachidonic acid. All agonists are obtained from Chronolog Corporation (Hawertown, Pa.).”
Venous blood (8 ml) was collected in a plastic tube containing 2 ml of acid-citrate-dextrose (ACD) (7.3 g citric acid, 22.0 g sodium citrate×2H2O and 24.5 glucose in 1000 ml distilled water) and mixed well. […] Samples were stored in the refrigerator at +4 °C, and analyzed on a Becton Dickinson FACScan flow cytometer with laser output of 15 mw, excitation at 488 nm, and emission detection at 530±30 nm. […]

[4] = post-angioplasty patient on aspirin

CN[C@H]1CC[C@@H](c2ccc(Cl)c(Cl)c2)c2ccccc21 [sertraline]
half life [1]: 25 to 32 h | ADP-, and collagen-induced platelet aggregation in whole blood (in vitro), in words (platelets; healthy controls and patients with coronary artery disease, including those on aspirin): Dose-dependent inhibition | percent of platelet aggregation (FIGS. 2 and 3), in words (platelets; whole blood, healthy volunteer, induced with ADP or collagen, sertraline 18.1, 44.7 or 85.3 ng/ml): decreases with increasing amounts of sertraline | ex vivo PECAM-1 plasma levels, in words (PECAM-1 [2]): Mild, but consistent reduction

N[C@H]1CC[C@@H](c2ccc(Cl)c(Cl)c2)c2ccccc21 [Desmethyl sertraline, N-desmethylsertraline]
PECAM-1 (peak) log fluorescence intensity (PECAM-1 [3]; healthy volunteers): 91 | PECAM-1 (mean) log fluorescence intensity (PECAM-1 [3]; [4]): 105 | PECAM-1 (peak) log fluorescence intensity (PECAM-1 [3]; [4]): 84 | GP IIIa (peak) log fluorescence intensity (GP IIIa; healthy volunteers): 1144 | GP IIIa (mean) log fluorescence intensity (GP IIIa; [4]): 1247 | GP IIb (mean) log fluorescence intensity (GP IIb; healthy volunteers): 37 | GP IIb (peak) log fluorescence intensity (GP IIb; [4]): 20 | CPIa-IIa (mean) log fluorescence intensity (CPIa-IIa): 42 | CPIa-IIa (peak) log fluorescence intensity (CPIa-IIa): 40 | CD9 (mean) log fluorescence intensity (CD9): 859 | platelet inhibition / platelet activation state, in words (human platelets): potent dose-dependent effects inhibiting human platelets | platelet inhibition / platelet activation state, in words (human platelets; listed as NDMS): significantly reduces the platelet activation state
